Results as given in ChEMBL document CHEMBL1201862, “PubChem BioAssay data set” (2004).
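These data come from cells grown in 96-well plates and exposed to compound for 48 hours at five concentrations. The concentration for 50% growth inhibition is given as GI50.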 The source made the active and inactive calls. Cut-off read from the data, not from the text of the source: active = GI50 up to about 1.1 µM and inactive = higher.

Tests used:
Assay in all cases: NCI-60 cell line screen, 48 h
HCT-116 = tested on: HCT-116
HCT-15 = tested on: HCT-15
HL-60 = tested on: HL-60
IGROV-1 = tested on: IGROV-1
K562 = tested on: K562
M14 = tested on: M14
MDA-MB-435 = tested on: MDA-MB-435
NCI/ADR-RES = tested on: NCI/ADR-RES
RPMI-8226 = tested on: RPMI-8226
SF-268 = tested on: SF-268
SK-MEL-28 = tested on: SK-MEL-28
SN12C = tested on: SN12C
SNB-75 = tested on: SNB-75
SW-620 = tested on: SW-620
T47D = tested on: T47D
TK-10 = tested on: TK-10
UACC-257 = tested on: UACC-257
NCI-H23 = tested on: NCI-H23

| Structure (SMILES) | GI50 (HCT-116) | GI50 (HCT-15) | GI50 (HL-60) | GI50 (IGROV-1) | GI50 (K562) | GI50 (M14) | GI50 (MDA-MB-435) | GI50 (NCI/ADR-RES) | GI50 (RPMI-8226) | GI50 (SF-268) | GI50 (SK-MEL-28) | GI50 (SN12C) | GI50 (SNB-75) | GI50 (SW-620) | GI50 (T47D) | GI50 (TK-10) | GI50 (UACC-257) | GI50 (NCI-H23) |
| --- | --- | --- | --- | --- | --- | --- | --- | --- | --- | --- | --- | --- | --- | --- | --- | --- | --- | --- |
| Cn1c2ccccc2c(=O)c2c(O)cc3c(c21)C1OCC(C)(O)C1O3 (configuration not stated) | 37.8 µM (inactive) | 53.3 µM | 81.5 µM (inactive) | 25.3 µM (inactive) | 53.3 µM (inactive) | > 100 µM (inactive) | > 100 µM (inactive) | 42.9 µM (inactive) | 85.7 µM (inactive) | 26.6 µM (inactive) | 83.9 µM (inactive) | 58.2 µM (inactive) | 22.9 µM (inactive) | 80 µM (inactive) | 42.7 µM (inactive) | 82 µM (inactive) | > 100 µM (inactive) |  |
| O=C1O/C(=C\c2ccccc2)N(c2ccccc2)C1=O | > 100 µM (inactive) | > 100 µM | > 100 µM (inactive) | > 100 µM (inactive) | > 100 µM (inactive) | > 100 µM (inactive) | > 100 µM (inactive) | > 100 µM (inactive) | > 100 µM (inactive) | > 100 µM (inactive) | > 100 µM (inactive) | > 100 µM (inactive) | > 100 µM (inactive) | > 100 µM (inactive) | > 100 µM (inactive) | > 100 µM (inactive) | > 100 µM (inactive) | > 100 µM (inactive) |
| Cc1nc2sc(CCl)nn2c(=O)c1Cl | 13.4 µM (inactive) | 11.5 µM | 13.1 µM (inactive) | 15 µM (inactive) | 12.1 µM (inactive) | 12.1 µM (inactive) | 4.95 µM (inactive) | 18.8 µM (inactive) | 5.62 µM (inactive) | 14.2 µM (inactive) | 12.8 µM (inactive) | 12.3 µM (inactive) | 10.9 µM (inactive) | 10.4 µM (inactive) | 13.1 µM (inactive) | 12.5 µM (inactive) | 12.3 µM (inactive) | 17.4 µM (inactive) |
| CC1(C)CCC[C@@]2(C)C1CC[C@@]1(CO1)[C@@H]2/C=C\C(C=O)CC=O (some centres not stated) | 62.2 µM (inactive) | 73.6 µM | 21.6 µM (inactive) | > 100 µM (inactive) | 26.5 µM (inactive) | > 100 µM (inactive) | > 100 µM (inactive) | > 100 µM (inactive) | 10.9 µM (inactive) | > 100 µM (inactive) | > 100 µM (inactive) | > 68.1 µM (inactive) | > 80.5 µM (inactive) | 67.1 µM (inactive) | 99.3 µM (inactive) | > 100 µM (inactive) | > 100 µM (inactive) | > 100 µM (inactive) |
| C#CCNC(Cc1c[nH]cn1)C(=O)O (configuration not stated) | > 100 µM (inactive) | > 100 µM | 89.3 µM (inactive) | > 100 µM (inactive) | > 100 µM (inactive) | > 100 µM (inactive) | > 100 µM (inactive) | > 100 µM (inactive) | > 100 µM (inactive) | > 100 µM (inactive) | > 100 µM (inactive) | > 100 µM (inactive) | > 100 µM (inactive) | > 100 µM (inactive) | > 100 µM (inactive) | > 100 µM (inactive) | > 100 µM (inactive) |  |
| CN1C(=O)[C@](C)(Cc2ccc(F)cc2)N(C(=O)OC(C)(C)C)[C@@H]1C(C)(C)C | 30 µM (inactive) | 37.8 µM | 11.4 µM (inactive) | 43.9 µM (inactive) | 25.6 µM (inactive) | 41.6 µM (inactive) | 39.3 µM (inactive) | 20.4 µM (inactive) | 22.4 µM (inactive) | 55.3 µM (inactive) | 55.3 µM (inactive) | 17.9 µM (inactive) | 29.2 µM (inactive) | 37.3 µM (inactive) | 26.7 µM (inactive) | 80.9 µM (inactive) | 30.5 µM (inactive) | 33.1 µM (inactive) |
| O=C(Nc1ccc(Cl)c(Cl)c1)OCCN1c2ccccc2Sc2ccccc21 | > 10 µM (inactive) | > 10 µM | > 10 µM (inactive) | > 10 µM (inactive) | > 10 µM (inactive) | > 10 µM (inactive) | > 10 µM (inactive) | > 10 µM (inactive) | > 10 µM (inactive) | > 10 µM (inactive) | > 10 µM (inactive) | > 10 µM (inactive) | > 10 µM (inactive) | > 10 µM (inactive) | > 10 µM (inactive) | > 10 µM (inactive) | > 10 µM (inactive) | > 10 µM (inactive) |
| CS(=O)(=O)OCCCCOS(=O)(=O)CF | > 100 µM (inactive) | > 100 µM | 33.5 µM (inactive) | > 91.4 µM (inactive) | > 100 µM (inactive) | > 100 µM (inactive) | > 100 µM (inactive) | > 100 µM (inactive) | > 100 µM (inactive) | > 100 µM (inactive) | > 100 µM (inactive) | > 100 µM (inactive) | > 100 µM (inactive) | > 100 µM (inactive) | > 100 µM (inactive) | > 100 µM (inactive) | > 100 µM (inactive) | > 100 µM (inactive) |
